Laboratory results from BigSolDB 2.1.

Nc1ncnc2c1ncn2CCOCP(=O)(O)O
solubility (mole fraction)
Details	278.15 K	283.15 K	288.15 K	293.15 K	298.15 K	303.15 K	308.15 K	313.15 K	318.15 K	323.15 K
in DMF	0.000121	0.000203	0.000318	0.000491	0.000762	0.00115	0.00172	0.00254	0.00368	0.0053
in acetone	0.000103	0.000114	0.000145	0.00018	0.000231	0.000286	0.000359	0.000435	0.000531	0.00065
in ethanol	7.5e-05	9.4e-05	0.00012	0.000154	0.000191	0.000237	0.000291	0.000342	0.000438	0.000541
in isobutanol	0.000183	0.000211	0.000252	0.000296	0.000365	0.000433	0.000505	0.000597	0.00069	0.00081
in methanol	0.000352	0.000395	0.000455	0.000523	0.0006	0.000704	0.000805	0.000915	0.00105	0.00122
in n-heptane	0.000127	0.000139	0.000175	0.000217	0.000269	0.000325	0.000394	0.000473	0.00057	0.000679
in n-propanol	0.000217	0.000235	0.000279	0.000343	0.000409	0.000485	0.00058	0.000681	0.0008	0.00093
in toluene	5.7e-05	6.5e-05	8.7e-05	0.000115	0.000144	0.000185	0.000239	0.000295	0.000373	0.000464
